Measurements as given in US8541460B2, “PDK-1/Akt signaling inhibitors” (The Ohio State University, priority 2003, dated 2013).

Experiments:
COX-2 = COX-2 (Homo sapiens, UniProt P35354); experiment: COX-2 inhibitory activity; type: biochemical; details: concentrations up to 50 μM
K-562 = experiment: NCI DTP cell line screen (SRB), Leukemia; type: cell-based
Protocol: (§1) Screening of compounds 70 and 71 against several cancer cell lines The human tumor cell lines of the cancer screening panel are grown in RPMI 1640 medium containing 5% fetal bovine serum and 2 mM L-glutamine. For a typical screening experiment, cells are inoculated into 96 well microtiter plates in 100 μL at plating densities ranging from 5,000 to 40,000 cells/well depending on the doubling time of individual cell lines. After cell inoculation, the microtiter plates are incubated at 37° C., 5% CO2, 95% air and 100% relative humidity for 24 h prior to addition of experimental drugs.
(§2) After 24 h, two plates of each cell line are fixed in situ with TCA, to represent a measurement of the cell population for each cell line at the time of drug addition (Tz). Experimental drugs are solubilized in dimethyl sulfoxide at 400-fold the desired final maximum test concentration and stored frozen prior to use. At the time of drug addition, an aliquot of frozen concentrate is thawed and diluted to twice the desired final maximum test concentration with complete medium containing 50 μg/ml gentamicin. Additional four, 10-fold or ½ log serial dilutions are made to provide a total of five drug concentrations plus control. Aliquots of 100 μl of these different drug dilutions are added to the appropriate microtiter wells already containing 100 μl of medium, resulting in the required final drug concentrations.
(§3) Following drug addition, the plates are incubated for an additional 48 h at 37° C., 5% CO2, 95% air, and 100% relative humidity. For adherent cells, the assay is terminated by the addition of cold TCA. Cells are fixed in situ by the gentle addition of 50 μl of cold 50% (w/v) TCA (final concentration, 10% TCA) and incubated for 60 minutes at 4° C. The supernatant is discarded, and the plates are washed five times with tap water and air dried. Sulforhodamine B (SRB) solution (100 μl) at 0.4% (w/v) in 1% acetic acid is added to each well, and plates are incubated for 10 minutes at room temperature. After staining, unbound dye is removed by washing five times with 1% acetic acid and the plates are air dried. Bound stain is subsequently solubilized with 10 mM trizma base, and the absorbance is read on an automated plate reader at a wavelength of 515 nm. For suspension cells, the methodology is the same except that the assay is terminated by fixing settled cells at the bottom of the wells by gently adding 50 μl of 80% TCA (final concentration, 16% TCA). Using the seven absorbance measurements [time zero, (Tz), control growth, (C), and test growth in the presence of drug at the five concentration levels (Ti)], the percentage growth is calculated at each of the drug concentrations levels. Percentage growth inhibition is calculated as: [(Ti−Tz)/(C−Tz)]×100 for concentrations for which Ti>/=Tz [(Ti−Tz)/Tz]×100 for concentrations for which Ti<Tz
(§4) Three dose response parameters are calculated for each experimental agent. […] The drug concentration resulting in total growth inhibition (TGI) is calculated from Ti=Tz. […] Values are calculated for each of these three parameters if the level of activity is reached; however, if the effect is not reached or is exceeded, the value for that parameter is expressed as greater or less than the maximum or minimum concentration tested.
(§5) The methods described were used to test compounds 70 and 71 on a panel of sixty cell lines under a screening service provided by the Developmental Therapeutics Program at the National Institutes of Health. Shown in FIG. 1C are 1, RPMI-8226 leukemia cells; 2; NCI-H322M non-small cell lung cancer cells; 3, HT29 colon cancer cells; 4, U251 CNS cancer cells; 5, SK-MEL-28 melanoma cancer cells; 6, SK-OV-3 ovarian cancer cells; 7, RXF 393 renal cancer cells; 8, PC-3 prostate cancer cells; 9, MDA-MB-231 breast cancer cells.

MOLT-4 = experiment: NCI DTP cell line screen (SRB), Leukemia; type: cell-based
Protocol: as §1, §2, §3, §4, §5

SR = experiment: NCI DTP cell line screen (SRB), Leukemia; type: cell-based
Protocol: as §1, §2, §3, §4, §5

MALME-3M = experiment: NCI DTP cell line screen (SRB), Melanoma; type: cell-based
ACHN = experiment: NCI DTP cell line screen (SRB), Renal Cancer; type: cell-based, human; details: for TGI: in M (unit assumed)
Protocol: as §1, §2, §3, §4, §5

CAKI-1 = experiment: NCI DTP cell line screen (SRB), Renal Cancer; type: cell-based, human; details: for TGI: in M (unit assumed)
Protocol: as §1, §2, §3, §4, §5

RXF 393 = experiment: NCI DTP cell line screen (SRB), Renal Cancer; type: cell-based, human
Protocol: as §1, §2, §3, §4, §5

UO-31 = experiment: NCI DTP cell line screen (SRB), Renal Cancer; type: cell-based, human; details: for TGI: in M (unit assumed)
Protocol: as §1, §2, §3, §4, §5

[1] = read-out: LC50 (the source's name)

Sequence of COX-2 (P35354 18-604): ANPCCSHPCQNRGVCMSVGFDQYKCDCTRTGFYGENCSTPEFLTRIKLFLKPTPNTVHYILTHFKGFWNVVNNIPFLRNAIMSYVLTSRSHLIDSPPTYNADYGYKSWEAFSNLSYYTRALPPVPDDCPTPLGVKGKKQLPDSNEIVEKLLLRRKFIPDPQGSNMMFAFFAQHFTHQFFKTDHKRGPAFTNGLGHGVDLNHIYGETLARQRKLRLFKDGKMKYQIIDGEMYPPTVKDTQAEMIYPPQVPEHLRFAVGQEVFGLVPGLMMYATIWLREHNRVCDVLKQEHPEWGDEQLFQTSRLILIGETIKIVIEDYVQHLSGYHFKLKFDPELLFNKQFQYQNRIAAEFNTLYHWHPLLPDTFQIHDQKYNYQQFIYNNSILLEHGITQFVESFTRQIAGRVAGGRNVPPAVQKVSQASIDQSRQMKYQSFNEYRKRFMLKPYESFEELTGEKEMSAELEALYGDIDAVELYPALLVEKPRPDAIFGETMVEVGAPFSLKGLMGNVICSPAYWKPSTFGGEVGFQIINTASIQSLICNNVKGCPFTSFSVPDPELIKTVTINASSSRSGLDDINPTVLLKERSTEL

## NCC(=O)Nc1ccc(-n2nc(C(F)(F)F)cc2-c2ccc3c(ccc4ccccc43)c2)cc1 [Compound 70, 2-Amino-N-{4-[5-(2-phenanthrenyl)-3-(trifluoromethyl)-1H-pyrazol-1-yl]-phenyl}-acetamide]
COX-2
  COX-2 inhibitory activity: nor was any measurable COX-2 inhibitory activity detected
K-562
  TGI: 3.34E−06
K-562; Log10 Concentration −4.0
  Percent Growth: −17%
K-562; Log10 Concentration −5.0
  Percent Growth: −30%
K-562; Log10 Concentration −6.0
  Percent Growth: 33%
K-562; Log10 Concentration −7.0
  Percent Growth: 62%
K-562; Log10 Concentration −8.0
  Percent Growth: 97%
MOLT-4
  TGI: 3.10E−06
MOLT-4; Log10 Concentration −4.0
  Percent Growth: −6%
MOLT-4; Log10 Concentration −5.0
  Percent Growth: −42%
MOLT-4; Log10 Concentration −6.0
  Percent Growth: 41%
MOLT-4; Log10 Concentration −7.0
  Percent Growth: 87%
MOLT-4; Log10 Concentration −8.0
  Percent Growth: 89%
SR
  TGI: 4.17E−06
SR; Log10 Concentration −5.0
  Percent Growth: −27%
SR; Log10 Concentration −6.0
  Percent Growth: 45%
SR; Log10 Concentration −7.0
  Percent Growth: 80%
SR; Log10 Concentration −8.0
  Percent Growth: 84%
MALME-3M
  TGI: 3.67E−06
MALME-3M; Log10 Concentration −4.0
  Percent Growth: −56%
MALME-3M; Log10 Concentration −5.0
  Percent Growth: −67%
MALME-3M; Log10 Concentration −6.0
  Percent Growth: 87%
MALME-3M; Log10 Concentration −7.0
  Percent Growth: 93%
MALME-3M; Log10 Concentration −8.0
  Percent Growth: 92%
ACHN; Log10 Concentration −4.0
  Percent Growth: −16%
ACHN; Log10 Concentration −5.0
  Percent Growth: −60%
ACHN; Log10 Concentration −6.0
  Percent Growth: 70%
ACHN; Log10 Concentration −7.0
  Percent Growth: 102%
ACHN; Log10 Concentration −8.0
  Percent Growth: 94%
ACHN
  TGI: 3.45E−06
CAKI-1; Log10 Concentration −4.0
  Percent Growth: −44%
CAKI-1; Log10 Concentration −5.0
  Percent Growth: −75%
CAKI-1; Log10 Concentration −6.0
  Percent Growth: 42%
CAKI-1; Log10 Concentration −7.0
  Percent Growth: 95%
CAKI-1; Log10 Concentration −8.0
  Percent Growth: 87%
CAKI-1
  TGI: 2.27E−06
RXF 393; RXF 393, Log10 Concentration −4.0
  Percent Growth: 10%
RXF 393; RXF 393, Log10 Concentration −5.0
  Percent Growth: −56%
RXF 393; RXF 393, Log10 Concentration −6.0
  Percent Growth: 56%
RXF 393; RXF 393, Log10 Concentration −7.0
  Percent Growth: 75%
RXF 393; RXF 393, Log10 Concentration −8.0
  Percent Growth: 91%
UO-31; Log10 Concentration −4.0
  Percent Growth: −36%
UO-31; Log10 Concentration −5.0
  Percent Growth: −64%
UO-31; Log10 Concentration −6.0
  Percent Growth: 68%
UO-31; Log10 Concentration −7.0
  Percent Growth: 84%
UO-31; Log10 Concentration −8.0
  Percent Growth: 84%
UO-31
  TGI: 3.29E−06

## N=C(N)Nc1ccc(-n2nc(C(F)(F)F)cc2-c2ccc3c(ccc4ccccc43)c2)cc1 [Compound 71, 4-[5-(2-Phenanthrenyl)-3-(trifluoromethyl)-1H-pyrazol-1-yl]-phenyl-guanidine]
COX-2
  COX-2 inhibitory activity: nor was any measurable COX-2 inhibitory activity detected
K-562
  GI50: 326 nM
  TGI: 1.52E−06
K-562; Log10 Concentration −4.0
  Mean Optical Densities: 0.119
  Percent Growth: −60%
K-562; Log10 Concentration −5.0
  Mean Optical Densities: 0.126
  Percent Growth: −58%
K-562; Log10 Concentration −6.0
  Mean Optical Densities: 0.438
  Percent Growth: 13%
K-562; Log10 Concentration −7.0
  Mean Optical Densities: 1.283
  Percent Growth: 89%
K-562; Log10 Concentration −8.0
  Mean Optical Densities: 1.338
  Percent Growth: 94%
K-562; [1]
  CC50: 7770 nM
MOLT-4
  GI50: 233 nM
  TGI: 1.98E−06
MOLT-4; Log10 Concentration −4.0
  Mean Optical Densities: 0.143
  Percent Growth: −54%
MOLT-4; Log10 Concentration −5.0
  Mean Optical Densities: 0.143
  Percent Growth: −54%
MOLT-4; Log10 Concentration −6.0
  Mean Optical Densities: 0.461
  Percent Growth: 23%
MOLT-4; Log10 Concentration −7.0
  Mean Optical Densities: 0.736
  Percent Growth: 66%
MOLT-4; Log10 Concentration −8.0
  Mean Optical Densities: 0.833
  Percent Growth: 81%
MOLT-4; [1]
  CC50: 8750 nM
SR
  GI50: 38.6 nM
  TGI: 3.79E−07
SR; Log10 Concentration −4.0
  Mean Optical Densities: 0.287
  Percent Growth: −21%
SR; Log10 Concentration −5.0
  Mean Optical Densities: 0.234
  Percent Growth: −36%
SR; Log10 Concentration −6.0
  Mean Optical Densities: 0.254
  Percent Growth: −30%
SR; Log10 Concentration −7.0
  Mean Optical Densities: 0.583
  Percent Growth: 42%
SR; Log10 Concentration −8.0
  Mean Optical Densities: 0.688
  Percent Growth: 62%
SR; [1]
  CC50: > 100000 nM
MALME-3M
  GI50: 1010 nM
  TGI: 2.33E−06
MALME-3M; Log10 Concentration −4.0
  Mean Optical Densities: 0.333
  Percent Growth: −50%
MALME-3M; Log10 Concentration −5.0
  Mean Optical Densities: 0.089
  Percent Growth: −87%
MALME-3M; Log10 Concentration −6.0
  Mean Optical Densities: 0.826
  Percent Growth: 50%
MALME-3M; Log10 Concentration −7.0
  Mean Optical Densities: 0.838
  Percent Growth: 54%
MALME-3M; Log10 Concentration −8.0
  Mean Optical Densities: 0.832
  Percent Growth: 52%
MALME-3M; [1]
  CC50: 100000 nM
ACHN
  GI50: 1670 nM
  TGI: 3.15E−06
ACHN; Log10 Concentration −4.0
  Mean Optical Densities: 0.291
  Percent Growth: −22%
ACHN; Log10 Concentration −5.0
  Mean Optical Densities: 0.034
  Percent Growth: −91%
ACHN; Log10 Concentration −6.0
  Mean Optical Densities: 0.964
  Percent Growth: 90%
ACHN; Log10 Concentration −7.0
  Mean Optical Densities: 0.902
  Percent Growth: 81%
ACHN; Log10 Concentration −8.0
  Mean Optical Densities: 0.898
  Percent Growth: 80%
CAKI-1
  GI50: 1830 nM
  TGI: 3.22E−06
CAKI-1; Log10 Concentration −4.0
  Mean Optical Densities: 0.315
  Percent Growth: −47%
CAKI-1; Log10 Concentration −5.0
  Mean Optical Densities: −0.067
  Percent Growth: −100%
CAKI-1; Log10 Concentration −6.0
  Mean Optical Densities: 1.804
  Percent Growth: 103%
CAKI-1; Log10 Concentration −7.0
  Mean Optical Densities: 1.642
  Percent Growth: 89%
CAKI-1; Log10 Concentration −8.0
  Mean Optical Densities: 1.735
  Percent Growth: 97%
RXF 393
  TGI: 2.91E−06
RXF 393; Log10 Concentration −4.0
  Mean Optical Densities: 0.385
  Percent Growth: −4%
RXF 393; Log10 Concentration −5.0
  Mean Optical Densities: 0.156
  Percent Growth: −61%
RXF 393; Log10 Concentration −6.0
  Mean Optical Densities: 0.629
  Percent Growth: 53%
RXF 393; Log10 Concentration −7.0
  Mean Optical Densities: 0.629
  Percent Growth: 53%
RXF 393; Log10 Concentration −8.0
  Mean Optical Densities: 0.582
  Percent Growth: 42%
UO-31
  GI50: 1570 nM
  TGI: 2.92E−06
UO-31; Log10 Concentration −4.0
  Mean Optical Densities: 0.288
  Percent Growth: −35%
UO-31; Log10 Concentration −5.0
  Mean Optical Densities: −0.030
  Percent Growth: −100%
UO-31; Log10 Concentration −6.0
  Mean Optical Densities: 1.332
  Percent Growth: 87%
UO-31; Log10 Concentration −7.0
  Mean Optical Densities: 1.407
  Percent Growth: 94%
UO-31; Log10 Concentration −8.0
  Mean Optical Densities: 1.375
  Percent Growth: 91%
